Test results published in patent US20180153995A1, “USE OF ANTIMICROBIAL POLYMERS FOR RE-SENSITIZATION OF MICROORGANISMS UPON EMERGENCE OF RESISTANCE TO ANTI-MICROBIAL AGENTS” (Technion Research & Development Foundation Limited, priority 2008, published 2018).
Like-named read-outs stand apart in the source and are kept apart here.

Assays:
E. coli 16327 = assay: microbe, parasite or virus in culture; settings: for Antibiotic MIC: E. coli 16327, no polymer (None)
E. coli 16329 = type: cell-based, Escherichia coli
Experimental: MICs were determined by microdilution susceptibility testing in 96-well plates (by Nunc) using inocula of 10^5 bacteria per ml. Cell populations were evaluated by optical density measurements at 620 nm and were calibrated against a set of standards. Hundred (100) μl of a bacterial suspension were added to 100 μl of culture medium (control) or to 100 μl of culture medium containing various polymer concentrations in 2-fold serial dilutions. Inhibition of proliferation was determined by optical density measurements at 620 nm after an incubation period of 24 hours at 37° C.
100 μl of a bacterial suspension were added to 100 μl of culture medium (control) or to 100 μl of culture medium containing various antibiotic and C14(9-ene)KKNC12KNH2 (SEQ ID NO: 5) concentrations in 2-fold serial dilutions. Inhibition of proliferation was determined by optical density measurements at 620 nm after an incubation period of 24 hours at 37° C.

S. maltophila 748 = assay: Antibiotic MIC by microdilution with or without sub-MIC polymer; type: cell-based, Stenotrophomonas maltophila
[1] = system: E. coli K-12 efflux knockout mutant; type: cell-based, Escherichia coli; settings: E. coli AG100A (efflux−)
Method in brief: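 Broth microdilution, inocula 10^5 bacteria/ml, 24 h at 37 °C. Growth read as OD620 against calibration standards.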

[2] = system: E. coli K-12 resistant wild type; type: cell-based, Escherichia coli; settings: E. coli AG100 (w.t.)
S. aureus 43300 = assay: Antibiotic MIC by microdilution with or without sub-MIC polymer; type: cell-based, Staphylococcus aureus
[3] = polymer at ½ of its MIC (Table 16)
[4] = the OAK at ¼ of its MIC (Table 17)
[5] = the OAK at ½ of its MIC (Table 17)

Cc1onc(-c2ccccc2)c1C(=O)N[C@@H]1C(=O)N2[C@@H]1SC(C)(C)[C@@H]2C(=O)O [Oxacillin, oxacillin]
Antibiotic MIC (E. coli 16327; Table 9): >512 µg/mL
Antibiotic MIC (E. coli 16327; Table 10): >512 µg/mL
Antibiotic MIC (E. coli 16327; Table 12): >512 µg/mL
MIC, ¼ + MIC OAK (E. coli 16327; E. coli U16327, with C12K(KNC10K)3NH2 (SEQ ID NO: 10) at ¼ of its MIC): >512 µg/mL
MIC, ⅓ + MIC OAK (E. coli 16327; E. coli U16327, with C12K(KNC10K)3NH2 (SEQ ID NO: 10) at ⅓ of its MIC): >512 µg/mL
Antibiotic MIC, None (E. coli 16327; E. coli U-16327, antibiotic alone (Table 15)): >512 µg/mL
Antibiotic MIC in presence of C12K(NC8K)7NH2 (SEQ ID NO: 4), +¼ MIC (E. coli 16327; E. coli U-16327, polymer at ¼ of its MIC): >512 µg/mL
Antibiotic MIC in presence of C12K(NC8K)7NH2 (SEQ ID NO: 4), +½ MIC (E. coli 16327; E. coli U-16327, polymer at ½ of its MIC): 512 µg/mL
Antibiotic MIC in presence of C12K(NC8K)7NH2 (SEQ ID NO: 4), +⅓ MIC (E. coli 16327; E. coli U-16327, polymer at ⅓ of its MIC): >512 µg/mL
MIC (E. coli 16327; Escherichia coli, 16327, read-out: MIC, Alone): > 512 µg/mL
Antibiotic MIC (E. coli 16329): >512 µg/mL
Antibiotic MIC (E. coli 16329; E. coli 16329, no polymer (None), Table 10): >512 µg/mL
Antibiotic MIC (E. coli 16329; E. coli U-16329, +¼ MIC C12K(NC8K)5NH2): >512 µg/mL
Antibiotic MIC (E. coli 16329; E. coli U-16329, +½ MIC C12K(NC8K)5NH2): >512 µg/mL
Antibiotic MIC (E. coli 16329; E. coli U-16329, +⅓ MIC C12K(NC8K)5NH2): >512 µg/mL
Antibiotic MIC, None (E. coli 16329; E. coli U-16329, antibiotic alone (Table 15)): >512 µg/mL
Antibiotic MIC (E. coli 16329; E. coli U-16329, no polymer (None), Table 14): >512 µg/mL
Antibiotic MIC in presence of C12K(NC8K)7NH2 (SEQ ID NO: 4), +¼ MIC (E. coli 16329; E. coli U-16329, polymer at ¼ of its MIC): >512 µg/mL
Antibiotic MIC in presence of C12K(NC8K)7NH2 (SEQ ID NO: 4), +½ MIC (E. coli 16329; E. coli U-16329, polymer at ½ of its MIC): 512 µg/mL
Antibiotic MIC in presence of C12K(NC8K)7NH2 (SEQ ID NO: 4), +⅓ MIC (E. coli 16329; E. coli U-16329, polymer at ⅓ of its MIC): >512 µg/mL
Antibiotic MIC (S. maltophila 748; +¼ MIC (1.6 μM) C12K(KNC12K)3NH2): 512 µg/mL
Antibiotic MIC (S. maltophila 748; +½ MIC (3.12 μM) C12K(KNC12K)3NH2): 256 µg/mL
Antibiotic MIC (S. maltophila 748; +⅓ MIC (2.1 μM) C12K(KNC12K)3NH2): 512 µg/mL
Antibiotic MIC (S. maltophila 748; no polymer (None), Table 13): 512 µg/mL
Antibiotic MIC, None ([1]; antibiotic alone (Table 16)): 0.5 to 1 µg/mL
Antibiotic MIC, None ([1]; antibiotic alone (Table 17)): 0.5 to 1 µg/mL
Antibiotic MIC in presence of C12K(NC8K)7NH2 (SEQ ID NO: 4), +¼ MIC ([1]; polymer at ¼ of its MIC (Table 16)): 0.5 to 1 µg/mL
Antibiotic MIC in presence of C12K(NC8K)7NH2 (SEQ ID NO: 4), +½ MIC [1, 3]: 0.25 µg/mL
Antibiotic MIC in presence of C12K(NC8K)7NH2 (SEQ ID NO: 4), +⅓ MIC ([1]; polymer at ⅓ of its MIC (Table 16)): 0.25 µg/mL
Antibiotic MIC in presence of the OAK, +¼ MIC [1, 4]: 0.5 µg/mL
Antibiotic MIC in presence of the OAK, +½ MIC [1, 5]: 0.25 µg/mL
Antibiotic MIC in presence of the OAK, +⅓ MIC ([1]; the OAK at ⅓ of its MIC (Table 17)): 0.5 µg/mL
Antibiotic MIC, None ([2]; antibiotic alone (Table 16)): 512 µg/mL
Antibiotic MIC, None ([2]; antibiotic alone (Table 17)): 512 µg/mL
Antibiotic MIC in presence of C12K(NC8K)7NH2 (SEQ ID NO: 4), +½ MIC [2, 3]: 32 to 64 µg/mL
Antibiotic MIC in presence of the OAK, +¼ MIC [2, 4]: 256 µg/mL
Antibiotic MIC in presence of the OAK, +½ MIC [2, 5]: 32 to 64 µg/mL
Antibiotic MIC (S. aureus 43300; +¼ MIC (1.6 μM) C12(5-ene)KKNC12KNH2): 0.125 µg/mL
Antibiotic MIC (S. aureus 43300; +¼ MIC (1.6 μM) C12KKNC12KNH2): 0.5 µg/mL
Antibiotic MIC (S. aureus 43300; +¼ MIC (1.6 μM) C16(9-ene)KKNC12KNH2): 0.25 to 0.5 µg/mL
Antibiotic MIC (S. aureus 43300; +½ MIC (3.12 μM) C12K(KNC12K)2NH2): 0.25 µg/mL
Antibiotic MIC (S. aureus 43300; +½ MIC (3.12 μM) C12KKNC12KNH2): 0.25 µg/mL
Antibiotic MIC (S. aureus 43300; +½ MIC (3.12 μM) C16(9-ene)KKNC12KNH2): 0.03 to 0.06 µg/mL
Antibiotic MIC (S. aureus 43300; +⅓ MIC (2.1 μM) C12(5-ene)KKNC12KNH2): 0.125 µg/mL
Antibiotic MIC (S. aureus 43300; +⅓ MIC (2.1 μM) C12K(KNC12K)2NH2): 0.25 µg/mL
